# From ChEMBL document CHEMBL1149595, “Novel isomarabarican triterpenes, exhibiting selective anti-proliferative activity against vascular endothelial cells, from marine sponge Rhabdastrella globostellata” (Bioorg Med Chem, 2007)
# Calls of active or inactive are those of the source. The calls are words filed in the database; no cut-off is given here.
# Tests used:
# [1] = Growth inhibition of KB3-1 cells after 72 hrs; type: functional, cell-based; conditions: Homo sapiens, KB 3-1, 72 h
# HUVEC [2] = experiment: Growth inhibition of HUVEC cells after 72 hrs; type: functional, cell-based; conditions: Homo sapiens
# K562 [3] = experiment: Growth inhibition of K562 cells after 72 hrs; type: functional, cell-based; conditions: Homo sapiens, K562, 72 h
# K562 [4] = experiment: Selectivity index, ratio of IC50 for K562 cells to IC50 for HUVEC cells; type: functional, Homo sapiens
# HUVEC [5] = experiment: Selectivity index, ratio of IC50 for KB3-1 cells to IC50 for HUVEC cells; type: functional, Homo sapiens
# [6] = Growth inhibition of Neuro2A cells after 72 hrs; type: functional, cell-based; conditions: N2a
# HUVEC [7] = experiment: Selectivity index, ratio of IC50 for Neuro2A cells to IC50 for HUVEC cells; type: functional, Homo sapiens
# [8] = Growth inhibition of HUVEC at 10 uM; type: cell-based; conditions: human, HUVEC cells
# KB 3-1 [9] = experiment: Induction of apoptosis assessed as activation of caspase 3 in KB3-1 cells at 10 uM; type: functional, cell-based; conditions: Homo sapiens
# HUVEC [10] = experiment: Induction of apoptosis assessed as activation of caspase 3 in HUVEC cells at 1 uM after 60 hrs; type: functional, Homo sapiens
# HUVEC [11] = experiment: Induction of apoptosis assessed as activation of caspase 7 in HUVEC cells at 10 uM after 48 hrs; type: functional, Homo sapiens
# KB 3-1 [12] = experiment: Induction of apoptosis assessed as activation of caspase 7 in KB3-1 cells at 10 uM; type: functional, cell-based; conditions: Homo sapiens
# HUVEC [13] = experiment: Induction of apoptosis assessed as activation of caspase 7 in HUVEC cells at 10 uM after 60 hrs; type: functional, Homo sapiens
# [14] = molecular target: Mitogen-activated protein kinase 1 (Homo sapiens) (UniProt P28482); experiment: Inhibition of VEGF-induced ERK2 phosphorylation in HUVEC cells after 6 hrs by immunoblotting; type: cell-based
# Mitogen-activated protein kinase 1 (Homo sapiens), sequence (P28482 whole entry): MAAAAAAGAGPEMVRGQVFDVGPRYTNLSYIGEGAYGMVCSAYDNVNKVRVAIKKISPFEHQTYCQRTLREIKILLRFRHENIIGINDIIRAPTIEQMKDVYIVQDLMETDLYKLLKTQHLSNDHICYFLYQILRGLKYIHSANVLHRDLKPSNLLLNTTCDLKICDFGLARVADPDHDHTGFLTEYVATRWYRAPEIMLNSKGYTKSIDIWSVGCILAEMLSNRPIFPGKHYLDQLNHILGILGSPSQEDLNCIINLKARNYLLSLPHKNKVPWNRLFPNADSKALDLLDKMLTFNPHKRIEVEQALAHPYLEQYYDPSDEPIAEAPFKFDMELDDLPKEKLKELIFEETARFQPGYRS
# HUVEC [15] = experiment: Induction of apoptosis assessed as activation of caspase 3 in HUVEC cells at 10 uM after 60 hrs; type: functional, Homo sapiens
# [16] = Growth inhibition of HUVEC at 1 uM; type: cell-based; conditions: human, HUVEC cells
# HUVEC [17] = experiment: Induction of apoptosis assessed as activation of caspase 3 in HUVEC cells at 10 uM after 48 hrs; type: functional, Homo sapiens
# HUVEC [18] = experiment: Induction of apoptosis assessed as activation of caspase 3 in HUVEC cells at 1 uM after 48 hrs; type: functional, Homo sapiens
# HUVEC [19] = experiment: Inhibition of VEGF-induced cell migration in HUVEC at 0.3 uM after 12 hrs; type: functional, cell-based; conditions: Homo sapiens
# HUVEC [20] = experiment: Induction of apoptosis assessed as activation of caspase 7 in HUVEC cells at 1 uM after 60 hrs; type: functional, Homo sapiens
# [21] = molecular target: Mitogen-activated protein kinase 3 (Homo sapiens) (UniProt P27361); experiment: Inhibition of VEGF-induced ERK1 phosphorylation in HUVEC cells after 6 hrs by immunoblotting; type: cell-based
# Mitogen-activated protein kinase 3 (Homo sapiens), sequence (P27361 whole entry): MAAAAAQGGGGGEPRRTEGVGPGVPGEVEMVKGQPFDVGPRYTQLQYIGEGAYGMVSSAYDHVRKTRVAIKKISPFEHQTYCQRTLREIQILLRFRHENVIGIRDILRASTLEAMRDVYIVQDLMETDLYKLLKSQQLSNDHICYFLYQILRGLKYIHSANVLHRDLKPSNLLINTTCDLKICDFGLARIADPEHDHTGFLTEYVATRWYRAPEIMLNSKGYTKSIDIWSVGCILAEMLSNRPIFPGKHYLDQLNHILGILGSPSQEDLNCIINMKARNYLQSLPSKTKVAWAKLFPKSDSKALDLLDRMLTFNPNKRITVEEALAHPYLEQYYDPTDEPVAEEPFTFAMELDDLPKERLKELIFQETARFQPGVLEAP
# HUVEC [22] = experiment: Inhibition of VEGF-induced cell migration in HUVEC at 1.0 uM after 12 hrs; type: functional, cell-based; conditions: Homo sapiens
# HUVEC [23] = experiment: Induction of apoptosis assessed as activation of caspase 7 in HUVEC cells at 1 uM after 48 hrs; type: functional, Homo sapiens
Compound,IC50 [1],IC50 (HUVEC [2]),IC50 (K562 [3]),Ratio IC50 (K562 [4]),Ratio IC50 (HUVEC [5]),IC50 [6],Ratio IC50 (HUVEC [7]),also measured
COC(=O)[C@]1(C)[C@@H]2CC[C@]3(C)\C(=C(C)/C=C/C=C(C)/C=C/C=O)C(=O)C[C@H]3[C@@]2(C)CC[C@H]1OC(C)=O [ACETYLJASPIFERAL B METHYL ESTER],16 µM,0.78 µM,7.8 µM,10,20,22 µM,28,
COC(=O)[C@]1(C)[C@@H]2CC[C@]3(C)/C(=C(C)/C=C/C=C(C)\C=C\C=C(C)C)C(=O)C[C@H]3[C@@]2(C)CC[C@H]1OC(C)=O,9.8 µM,0.4 µM,22 µM,55,25,7.9 µM,19,
CC(=O)O[C@@H]1CC[C@@]2(C)[C@@H](CC[C@]3(C)/C(=C(C)/C=C/C=O)C(=O)C[C@@H]23)[C@@]1(C)C(=O)O [ACETYLJASPIFERAL E],28 µM,2.2 µM,32 µM,15,13,34 µM,14,
COC(=O)[C@]1(C)[C@@H]2CC[C@]3(C)\C(=C(C)/C=C/C=C(C)/C=C/C=C(C)C)C(=O)C[C@H]3[C@@]2(C)CC[C@H]1OC(C)=O,14 µM,,23 µM,256,,7.5 µM,83,inhibition at 10 µM [8]: > 90%; Activity (KB 3-1 [9]): inactive; Fold change (HUVEC [10]): 13; Fold change (HUVEC [11]): 17; Activity (KB 3-1 [12]): inactive; Fold change (HUVEC [13]): 45; Activity [14]: inactive; Fold change (HUVEC [15]): 13; inhibition at 1 µM [16]: > 90%; Fold change (HUVEC [17]): 5; Fold change (HUVEC [18]): 5; Activity (HUVEC [19]): Active; Fold change (HUVEC [20]): 45; Activity [21]: inactive; Activity (HUVEC [22]): Active; Fold change (HUVEC [23]): 17
COC(=O)[C@]1(C)[C@@H]2CC[C@]3(C)\C(=C(C)/C=C/C=C(C)\C=C\C=C(C)C)C(=O)C[C@H]3[C@@]2(C)CC[C@H]1OC(C)=O,18 µM,0.06 µM,22 µM,360,200,4.7 µM,75,
COC(=O)[C@@]1(C)[C@H](O)CC[C@@]2(C)[C@H]1CC[C@]1(C)\C(=C(C)/C=C/C=C(C)/C=C/C=C(C)C)C(=O)C[C@@H]21,4.9 µM,0.19 µM,5.2 µM,27,25,5.9 µM,31,
COC(=O)[C@]1(C)[C@@H]2CC[C@]3(C)\C(=C(C)/C=C/C=C(\C)C(/C=C/C(C)(C)O)OC)C(=O)C[C@H]3[C@@]2(C)CC[C@H]1OC(C)=O (stereo partly specified),6.5 µM,1.1 µM,9.3 µM,9,6,6 µM,6,
COC(=O)[C@]1(C)[C@@H]2CC[C@]3(C)/C(=C(C)/C=C/C=C(C)/C=C/C=C(C)C)C(=O)C[C@H]3[C@@]2(C)CC[C@H]1OC(C)=O,3.1 µM,0.064 µM,9 µM,141,48,3.2 µM,50,
COC(=O)[C@]1(C)[C@@H]2CC[C@]3(C)\C(=C(C)/C=C/C=C(C)/C=C/C(O)C(C)(C)O)C(=O)C[C@H]3[C@@]2(C)CC[C@H]1OC(C)=O (stereo partly specified) [GLOBOSTELLATIC ACID F METHYL ESTER],8.6 µM,0.98 µM,12 µM,12,9,5 µM,5,
COC(=O)[C@]1(C)[C@@H]2CC[C@]3(C)C(C(C)CCCC(C)CCCC(C)C)C(=O)C[C@H]3[C@@]2(C)CC[C@H]1OC(C)=O (stereo partly specified),> 100 µM,> 100 µM,53 µM,,,80 µM,,
